{"source": "patent US20150038471A1", "about": "“PROCESS FOR PREVENTING OR MITIGATING BIOFOULING” (Baker Hughes Incorporated, priority 2010, published 2015)", "assay_type_in_all_cases": "cell-based", "key": {"[1]": {"system": "acid-producing bacteria (APB)", "assay": "Mitigation of APB growth in seawater, dilution series bottles", "conditions": "600 ppm product; seawater 3% TDS; contact 20 hours; three replicate columns", "description": "Various biocidal blends with only 50% THPS, only XC800, and different mixtures were tested, along with a control, at preventing or mitigating APB growth. The media was seawater with 3% total dissolved solids (TDS). Contact times were 20 hours and the reaction volume was 50 ml, using 8 bottles per dilution series string. APB growth was measured from 0 to 4 in logarithmic units.\nIn FIG. 1, it is expected that the mitigation of APB growth would generally follow a straight line (dashed in FIG. 1) from 600 ppm THPS (50%) to 600 ppm XC800."}, "[2]": {"system": "bacterial-fouled water taken from an oil production site", "assay": "Turbidity of bacterial-fouled oilfield water culture in synthetic brine", "conditions": "600 nm after 24 hours", "description": "A sample of a bacterial-fouled water was taken from an oil production site and used as a culture base for testing of cinnamaldehyde as a bactericide. The culture was introduced into a synthetic brine (similar to that used for oilfield operations) and turbidity was measure at 600 nm after 24 hours."}, "[3]": {"system": "sulfate-reducing bacteria (SRB)", "assay": "SRB surviving 3 h treatment, serial dilution enumeration (NACE TMO 194-2004)", "description": "Following the treatment, an aliquot of each sample was serially diluted (10-fold dilutions) into culture media for SRB to enumerate the survivors according to NACE TMO 194-2004."}}, "data": [{"molecule": "tetrakis hydroxymethyl phosphonium sulfate [50% THPS only]", "values": [{"measurement": "APB growth (0 to 4)", "setting": "[1]", "value": 1, "unit": "logarithmic units"}]}, {"molecule": "O=CC=Cc1ccccc1", "note": "[Cinnamaldehyde, cinnamaldehyde]", "values": [{"measurement": "Turbidity", "setting": "[2]; cinnamaldehyde 50 ppm", "value": 1.854}, {"measurement": "Turbidity", "setting": "[2]; cinnamaldehyde 125 ppm", "value": 0.973}, {"measurement": "Turbidity", "setting": "[2]; cinnamaldehyde 250 ppm", "value": 0.175}, {"measurement": "Turbidity", "setting": "[2]; cinnamaldehyde 375 ppm", "value": 0.103}, {"measurement": "Turbidity", "setting": "[2]; cinnamaldehyde 500 ppm", "value": 0.113}, {"measurement": "SRB Surviving Treatment", "setting": "[3]; THPS 0 ppm, cinnamaldehyde 25 ppm", "value": "≧10^10 SRB/ml"}, {"measurement": "SRB Surviving Treatment", "setting": "[3]; THPS 0 ppm, cinnamaldehyde 50 ppm", "value": "≧10^10 SRB/ml"}]}, {"molecule": "tetrakis hydroxymethyl phosphonium sulfate [THPS]", "values": [{"measurement": "SRB Surviving Treatment", "setting": "[3]; THPS 50 ppm, cinnamaldehyde 0 ppm", "value": "≧10^10 SRB/ml"}, {"measurement": "SRB Surviving Treatment", "setting": "[3]; THPS 100 ppm, cinnamaldehyde 0 ppm", "value": "≧10^10 SRB/ml"}, {"measurement": "SRB Surviving Treatment", "setting": "[3]; THPS 250 ppm, cinnamaldehyde 0 ppm", "value": "10^5 SRB/ml"}]}]}
